Experimental findings from patent US7335481B2, “Methods of identifying compounds that affect a fatty acid cell-surface receptor” (priority 2002, dated 2008) are described below.

Assay [1] has as its target T1, FFAR (R10; GPR40) (Homo sapiens, UniProt O14842).
T1 construct: expressed in transfected cells; host or cells: HFF11 reporter cells (HeLa-based), line HFF11.pR10
As to the kind of experiment: HFF11 reporter cell assay, HFF11.pR10 cells expressing FFAR. Particulars: for activation of FFAR: result in words; for response of the R10 reporter cell line in the initial screening: FIG. 1a/1b. Further details: response of the R10 reporter cell line in the initial screening: dose or concentration left out as unconfirmed. Format: cell-based. How it is done: Construction of the HFF11 reporter cell lines (successor of the previously described HeLa based cell line, HF1) expressing the orphan GPCRs studied was performed as earlier reported. (Co-pending U.S. application Ser. No. 09/946,334 filed Sep. 21, 2001; Kotarsky et al. 2001.) They contain the reporter plasmid, pcFUS3, where the original promoter region has been extended by 6 NFkB and 6 STAT elements. (Co-pending U.S. application Ser. No. 09/946,334 filed Sep. 21, 2001; Kotarsky et al., unpublished.) On day 1, HFF11 reporter cells, with or without the test […] receptor, were seeded into 96-well plates at 20,000 cells per well in 100 μl growth medium. On day 3, the medium was removed and replaced by 90 μl serum-free medium. Substances (e.g., compounds) and controls were added in the appropriate concentrations 24 h later. Stimulations were performed at 37 degrees C. for 7 h. Cell lysates were assayed in a BMG Lumistar Galaxy luminometer as previously described. (Kotarsky et al., 2001.) Statistical analysis of the drug concentration-response data was carried out with the GraphPad PRISM software package. In the initial screening, reporter cell lines, with or without recombinant test receptors, were challenged with FFAs, such as AA and LA, at […]. Ten cell lines expressing ten “orphan receptors” (one receptor per cell line) were screened. The expressed receptors were labeled R1-R10.

The subject of the next assay is orphan receptors R1-R9. Kind of assay: HFF11 reporter cell initial screening on the other orphan receptors. Format: cell-based, human. Set-up: dose or concentration left out as unconfirmed. The conditions noted are these: data not shown. The source says:
Taken together, this prompted an investigation of these FFAs using a screening approach aimed at identifying potential surface receptors. We used a highly sensitive reporter system (Kotarsky et al., 2001) expressing each of ten different putative human heptahelix receptors, for which the endogenous activating ligands were still unknown (i.e., “orphan receptors”), was used. The receptor sequences were selected from GenBank, based on a reasonably high sequence homology to the receptors for leukotriene B4 (an AA derivative), previously cloned. (Owman et al., 1996; Tryselius et al., 2000.)
Construction of the HFF11 reporter cell lines (successor of the previously described HeLa based cell line, HF1) expressing the orphan GPCRs studied was performed as earlier reported. (Co-pending U.S. application Ser. No. 09/946,334 filed Sep. 21, 2001; Kotarsky et al. 2001.) They contain the reporter plasmid, pcFUS3, where the original promoter region has been extended by 6 NFkB and 6 STAT elements. (Co-pending U.S. application Ser. No. 09/946,334 filed Sep. 21, 2001; Kotarsky et al., unpublished.) On day 1, HFF11 reporter cells, with or without the test heptahelix receptor, were seeded into 96-well plates at 20,000 cells per well in 100 μl growth medium. On day 3, the medium was removed and replaced by 90 μl serum-free medium. […]

The target of assay [2] is T1, FFAR (R10; GPR40). Kind of assay: Aequorin reporter assay (calcium release) in CHO and HeLa cells transiently transfected with R10. Format: cell-based. Particulars: CHO and HeLa cells co-transfected with R10 and aequorin, versus sham-transfected cells, FIG. 2. The method, then:
Cells were seeded the day before transfection in a 6-well plate (400,000 cells/well). Then, 0.8 μg of PCDM.AEQ reporter plasmid (Button et al., 1993.) and 1 μg pIRESpuro.R10 receptor plasmid, or pcEGFP for controls, were mixed with 100 μl OptiMEM containing 5 μl per transfection of PLUS reagent. After 15 min., 100 μl OptiMEM and 9 μl (HeLa cells) or 6 μl (CHO cells) of lipofectamine were added and incubated for another 15 min. Then, 800 μl OptiMEM were added, and the cells were washed and incubated with the transfection solution for 5 h. Two days after transfection, cells were loaded with 10 μM coelenterazine and injected into a 96-well plate containing test or control (vehicle) substances. Light emission was recorded for 1 min in a BMG Lumistar Galaxy luminometer and normalized to total emission using […] 100 mM CaCl2 for each well.
Activation of receptor R10 by LA was confirmed by stimulation in two different cell lines, CHO and HeLa, transiently co-transfected with expression vectors containing the R10 ORF (i.e., the gene encoding FFAR) and the calcium-activated photoprotein, aequorin. […] (FIG. 2.)

Where [3] appears, read: FFAR response to free fatty acids, HFF11.pR10 reporter cell line, read-out: Mean EC50.
Where [4] appears, read: HFF11 reporter cells expressing FFAR.

Read-outs that look alike come from different tables or passages of the source.

T1 sequence (O14842 whole entry): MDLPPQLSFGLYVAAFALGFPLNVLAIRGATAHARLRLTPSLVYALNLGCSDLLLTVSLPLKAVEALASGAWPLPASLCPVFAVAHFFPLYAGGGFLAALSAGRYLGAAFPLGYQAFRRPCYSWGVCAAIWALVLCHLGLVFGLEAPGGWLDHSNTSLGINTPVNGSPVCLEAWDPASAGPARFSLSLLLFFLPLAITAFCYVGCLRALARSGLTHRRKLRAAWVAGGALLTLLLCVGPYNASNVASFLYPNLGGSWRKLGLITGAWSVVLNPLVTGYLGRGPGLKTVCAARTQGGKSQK

With `CCCCCCCCCCCCCCCC(=O)O` [Palmitic acid, Hexadecanoic acid], at FFAR (R10; GPR40) [1] (setting [3]), the EC50 is 143 µM. `CCCCC/C=C\C/C=C\C/C=C\CCCCC(=O)O` [γ-Linoleic acid, cis-6, cis-9, cis-12-octadecanoic acid]: on FFAR (R10; GPR40) [1] (setting [3]), the EC50 came out at 28.5 µM. Take `CCCCCCCCCC(=O)O` [Capric acid, Decanoic acid]: at FFAR (R10; GPR40) [1] (concentration response curves, HFF11 reporter cells expressing FFAR, FIG. 3, read-out: EC50), the EC50 was determined as 12.6 µM. As to `CC1(COc2ccc(CC3SC(=O)NC3=O)cc2)CCCCC1` (racemic) [Ciglitazone, (±)-5-[4-(1-methylcyclohexylmethoxy)-benzyl]thiazolidine-2,4-dione], the “activation of FFAR” value on FFAR (R10; GPR40) [1] (setting [4]) is recorded as “strongly activated FFAR”. Turning to `CCC=CCC=CCC=CCC=CCCCCC(=O)O` [Stearidonic acid, cis-6, cis-9, cis-12-15-octadecanoic acid], at FFAR (R10; GPR40) [1] (setting [3]), the EC50 came out at 8.9 µM. Take `CCCCCCCC/C=C/CCCCCCCC(=O)O` [Elaidic acid, trans-9-octadecanoic acid]: on FFAR (R10; GPR40) [1] (setting [3]), the EC50 was found to be 120 µM. Turning to `CCCCCCCCCCCC(=O)O` [Lauric acid, Dodecanoic acid], on FFAR (R10; GPR40) [1] (setting [3]), the EC50 was found to be 22.5 µM. As to `CCCCC/C=C\C/C=C\C/C=C\C/C=C\CCCC(=O)O` [arachidonic acid], in the assay on orphan receptors R1-R9, the “effect on test receptors R1-R9 in the initial screening” value is listed as “no effect”. For the same compound, the “response of the R10 reporter cell line in the initial screening” value at FFAR (R10; GPR40) [1] is recorded as “no effect”.

As for `CCCCCCC(O)C/C=C\CCCCCCCC(=O)O` (stereo not drawn) [Ricinoleic acid, 12-hydroxy, cis 9-octadecenoic acid], the EC50 on FFAR (R10; GPR40) [1] (setting [3]) is 8 µM.

As to `CCCCC/C=C\C=C\C(O)CCCCCCCC(=O)O` (racemic) [9-HODE, (±)-9-hydroxy, trans-10, cis-12-octadecanoic acid], on FFAR (R10; GPR40) [1] (setting [3]), the 50% effective concentration (EC50) worked out at 3.4 µM. The “activation of FFAR” value on FFAR (R10; GPR40) [1] (setting [4]) is recorded as “activated FFAR”. In the case of `CCCC/C=C/CCCCCCCC(=O)O` [Myristelaidic acid, trans-9-tetradecenoic acid], the EC50 at FFAR (R10; GPR40) [1] (setting [3]) turned out to be 25 µM. Take `CCOC(=O)C(C)(C)Oc1ccc(Cl)cc1` [Clofibrate]: the “activation of FFAR” value on FFAR (R10; GPR40) [1] (setting [4]) is “inactive”.

As to `CCCCCCC(O)CCCCCCCCCCC(=O)O` (stereo not drawn) [Hydroxystearic acid, 12-hydroxyoctadecanoic acid], the EC50 on FFAR (R10; GPR40) [1] (setting [3]) is 8 µM. With `CCCCCC/C=C\CCCCCCCC(=O)O` [Palmitoleic acid, hexadecenoic acid], on FFAR (R10; GPR40) [1] (setting [3]), the EC50 amounted to 100 µM. On to `COc1ccc(Cl)cc1C(=O)NCCc1ccc(S(=O)(=O)NC(=O)NC2CCCCC2)cc1` [Glibenclamid, Glibenclamide], for which, at FFAR (R10; GPR40) [1] (setting [4]), the “activation of FFAR” value is “inactive”. As for `CCCCCCC(O)C/C=C/CCCCCCCC(=O)O` (stereo not drawn) [Ricinelaidic acid, 12-hydroxy, trans 9-octadecanoic acid], the EC50 on FFAR (R10; GPR40) [1] (setting [3]) was determined as 20 µM. For `CCCCCCCCCCCCCCCCCC(=O)O` [stearic acid], at FFAR (R10; GPR40) [1] (setting [4]), the “activation of FFAR” value is “able to activate the receptor”.

Regarding `CC(C)(CCCCCCCCCCC(C)(C)CC(=O)O)CC(=O)O` [MEDICA 16, 3,3,14,14-tetramethyl-hexadecanedioic acid], the “activation of FFAR” value at FFAR (R10; GPR40) [1] (setting [4]) is “strongly activated FFAR”. For the compound `CCCCC/C=C\C/C=C\CCCCCCCCCC(=O)O` [EDA, cis-11, cis-14- -eicosadienoic acid], at FFAR (R10; GPR40) [1] (setting [3]), the EC50 is 20 µM. Same read-out and setting: the figure for `CCCCCCCC/C=C\CCCCCCCC(=O)O` [Oleic acid, cis-9-octadecanoic acid] is 123 µM. Turning to `CCCCC/C=C\C=C\CCCCCCCCC(=O)O` [CLA, trans-10, cis-12-octadecanoic acid], on FFAR (R10; GPR40) [1] (setting [3]), the EC50 was found to be 77.3 µM. The “activation of FFAR” value at FFAR (R10; GPR40) [1] (setting [4]) is “activated FFAR”.

For `CCCCC/C=C\C/C=C\CCCCCCCC(=O)O` [Linoleic acid, cis-9, cis-12,-octadecanoic acid], the “calcium-mediated luminescence upon stimulation” value at FFAR (R10; GPR40) [2] is “calcium-mediated luminescence flash”. The EC50 on FFAR (R10; GPR40) [1] (setting [3]) worked out at 38.4 µM. Moreover, at FFAR (R10; GPR40) [1], the “response of the R10 reporter cell line in the initial screening” value is “strong and reproducible response”.
